From article PMC6862080, “Blood Compatibility—An Important but Often Forgotten Aspect of the Characterization of Antimicrobial Peptides for Clinical Application” (International Journal of Molecular Sciences, 2019)

Key:
LPS from E. coli = experiment: Endotoxin inactivation in human serum, chromogenic LAL test (E. coli LPS); format: biochemical; conditions: 500 ng/mL peptide, 5 ng/mL LPS, n = 3
Procedure: (§1) The LPS neutralization study in serum was conducted using a chromogenic Limulus Amebocyte Lysate (LAL) test (Charles River Laboratories, MA, USA). The LAL test is the most established method for quantifying LPS. This method uses amebocyte lysate from Limulus polyphemus, wherein the presence of LPS triggers a defense mechanism that induces coagulation. The LAL test is used successfully for detection of LPS in a wide variety of industrial, pharmaceutical, and research applications, such as water supplies, parenteral fluids, drugs for intravenous administration, and certain biologic fluids (e.g., cerebrospinal fluid). Therefore, serum, which was obtained from freshly drawn blood, was spiked with 500 ng/mL AMPs, PMB or LL-37 before adding 5 ng/mL LPS from E. coli or P. aeruginosa. As positive and negative controls, native serum with and without LPS was used, respectively. Endotoxin activity was measured using the LAL assay according to the manufacturer’s specifications.

LPS from P. aeruginosa = experiment: Endotoxin inactivation in human serum, chromogenic LAL test (P. aeruginosa LPS); format: biochemical; conditions: 500 ng/mL peptide, 5 ng/mL LPS, n = 3
Procedure: as §1

E. coli (ATCC 11303) = experiment: microbe, parasite or virus in culture; format: cell-based; conditions: DIN 58940-8, Müller-Hinton broth, overnight 37 °C, turbidity 620 nm
S. aureus (ATCC 12600) = experiment: microbe, parasite or virus in culture; format: cell-based; conditions: DIN 58940-8, Müller-Hinton broth, overnight 37 °C, turbidity 620 nm
E. coli and S. aureus = experiment: Scanning electron microscopy of bacterial cell wall damage; format: cell-based; conditions: 128 μg/mL, overnight culture at 37 °C, 2 × 10^5–8 × 10^5 CFU/mL
Procedure: In order to verify and to visualize the impact of AMPs on the bacterial membrane, electron microscopy was conducted. Therefore, bacterial suspensions of E. coli and S. aureus with a concentration of 2 × 10^5–8 × 10^5 CFU/mL were incubated with 128 μg/mL of one AMP (LF11-322-C8) and PMB in a microplate over night at 37 °C. After overnight culture, the bacteria were prepared for SEM. To achieve this, the bacteria suspensions were filtered through a sterile filter (Swinnex filter holders, Merck Millipore, Burlington, MA, USA). The filters with the collected bacteria were than washed with PBS (10 mM, pH 7.2) and fixed with a 2.5% glutaraldehyde solution (Carl Roth, Karlsruhe, Deutschland). The fixed specimens were gradually dehydrated by increasing ethanol solutions (10% to 100%) and sputtered with gold (Q150R ES Sputter Coater, Quorum Technologies Ltd., East Sussex, UK) prior to examination with a scanning electron microscope (FlexSEM 1000, Hitachi, Tokyo, Japan).

erythrocyte membranes [1] = experiment: Hemolysis in whole blood (Kahn method); format: cell-based, human; conditions: citrate anticoagulated whole blood, 60 min 37 °C, Kahn method, n = 3, control 3.7 ± 1.9
Procedure: (§2) Hemolysis was tested with fresh citrate anticoagulated blood from healthy volunteers as well as with blood cells which were suspended in phosphate buffered saline (10 mM pH 7.4). Afterwards, 100 μL AMP solution was added to 500 μL blood to finally achieve AMP concentrations of 8, 32, and 128 μg/mL. As the negative and positive control, 100 μL PBS buffer and 100 μL 12% Triton-X buffer was added to 500 μL blood, respectively. After incubation on an orbital shaker for 60 min at 37 °C, the cells were removed by centrifugation and 100 μL of the supernatant were transferred to a 96 well microplate for hemolysis measurement. The hemolysis was calculated from the extinction at the wavelengths 562, 578, and 598 nm with a Synergy 2 microplate reader (BioTek, Winooski, VT, USA) according to the method published by Kahn.

erythrocyte membranes [2] = experiment: Hemolysis in RBC suspended in PBS (Kahn method); format: cell-based, human; conditions: 60 min 37 °C, Kahn method, n = 3, control 8.5 ± 4.7
Procedure: as §2

plasmatic coagulation [3] = experiment: Activation of the clotting cascade in heparinized plasma; conditions: heparinized (0.5 IU/mL) plasma, 128 μg/mL, 37 °C, 120 min, turbidity at 600 nm
Procedure: (§3) Plasma spiked with MES buffer without AMP was used as the negative control. […] Samples were incubated at 37 °C for 120 min. Coagulation was determined by turbidity measurement at 600 nm using a well plate reader.

plasmatic coagulation [4] = experiment: Activation of the clotting cascade in citrated plasma; conditions: citrated (17 mM) plasma, 128 μg/mL, 37 °C, 120 min, turbidity at 600 nm
Procedure: as §3

plasmatic coagulation [5] = experiment: Clotting batch test in citrate plasma; format: biochemical, human; conditions: citrate plasma, 37 °C, 60 min, turbidity 600 nm, fibrinogen and D-Dimer; further: key: −: no clotting observed, no D-dimers and normal fibrinogen level; +: clotting observed, high D-dimer level, no detectable fibrinogen serum level
Procedure: Since the acylated LF11-322 peptides cause plasmatic coagulation of citrate anticoagulated plasma, separate clotting experiments were performed with this peptide group. The aim was to check whether the coagulation activation is dependent on the AMP concentration and on the acyl chain length. […] Plasma without additives served as the negative control, whereas plasma spiked with CaCl2/MgCl2 (500/250 mM) solution to restore the physiological calcium and magnesium level in plasma was used as the positive control. Incubation was performed at 37 °C for 60 min. […] In order to ensure that the measured turbidity of the plasma is caused by fibrin formation, the fibrinogen and D-Dimer concentrations were additionally determined. During plasmatic clotting, the fibrinogen level decreases and the D-Dimer level in serum increases. Both were analyzed on a Sysmex CA560 with the corresponding reagents (Siemens Healthineers, Erlangen, Germany).

platelets = experiment: SEM imaging of platelet morphology in PRP; format: cell-based, human; conditions: 128 μg/mL, 2 h, 37 °C
Procedure: Since it was observed that some AMPs are able to activate the plasmatic coagulation system of heparinized and citrate anticoagulated blood, the influence of this peptides on platelets was investigated. For this purpose, fresh heparinized and citrated blood were collected from three donors. The blood was centrifuged at 500 g for 5 min and platelet rich plasma (PRP) was obtained. The PRP was incubated at 37 °C for 2 h with 128 μg/mL AMP, PMB, and LL-37. PRP without any additives served as the control. After incubation, the platelet number was determined by a Sysmex Automated Hematology Analyzer KX-21-N (Kobe, Japan). In addition, the PRP samples were prepared for SEM to visualize the morphology of the thrombocytes. After incubation, 10 μL PRP were diluted with 990 μL PBS (0.01 M) and filtered through a 0.2 μm membrane (Membrane Filter Isopore 0.2 μm, Merck, Darmstadt, Germany). The platelets were retained on the membrane, washed with 1 mL PBS, and fixed with 1 mL glutaraldehyde solution (2.5% glutaraldehyde in physiological saline solution). After an incubation time of 60 min, the samples were dehydrated using a series of ethanol (30%, 50%, 60%, 70%, 80%, 90%, and 100%). Afterwards the samples were dried overnight at RT, sputtered with gold and visualized with a scanning electron microscope (FLEXSem 1000, Hitachi, Japan).

[6] = system: LPS-stimulated leukocytes; conditions: whole blood, PMB serum level between 100 to 200 ng; cited from earlier work
Procedure: Past studies have shown that a PMB serum level between 100 to 200 ng reduces the cytokine secretion of LPS-stimulated leukocytes up to 90% in whole blood. PMB directly interacts with the conserved lipid A region of the LPS molecule. […] In this study, it was tested whether the lactoferrin based peptides are able to form a complex with LPS similar to PMB, which would lead to a reduction of the inflammatory effect of LPS. The results (Figure 3) indicate that in c ...

[7] = PBS pH 7.4, inoculum 2 × 10^5–8 × 10^5 CFU/mL

Substance: Polymyxin B [PMB, reference compound]
- Reduction of endotoxin activity of E. coli LPS (LPS from E. coli): 63 ± 7%
- Reduction of endotoxin activity of P. aeruginosa LPS (LPS from P. aeruginosa): 74 ± 7%
- Minimal Inhibitory Concentration, E. coli, 4% HSA (E. coli (ATCC 11303); 4% human serum albumin): 4 µg/mL
- Minimal Inhibitory Concentration, E. coli, PBS + heparin (E. coli (ATCC 11303); PBS containing 5 IU/mL heparin): 4 µg/mL
- Minimal Inhibitory Concentration, E. coli, PBS (E. coli (ATCC 11303); [7]): 2 µg/mL
- Minimal Inhibitory Concentration, S. aureus, 4% HSA (S. aureus (ATCC 12600); 4% human serum albumin): 64 µg/mL
- Minimal Inhibitory Concentration, S. aureus, PBS + heparin (S. aureus (ATCC 12600); PBS containing 5 IU/mL heparin): > 128 µg/mL
- Minimal Inhibitory Concentration, S. aureus, PBS (S. aureus (ATCC 12600); [7]): 8 µg/mL
- Lysis of bacteria cells seen by SEM (in words) (E. coli and S. aureus): not able to lyse S. aureus cells
- Free Hemoglobin, BLOOD, 8 μg/mL (erythrocyte membranes [1]; peptide conc. 8 μg/mL): 3.5 ± 2.8 mg/dL
- Free Hemoglobin, BLOOD, 32 μg/mL (erythrocyte membranes [1]; peptide conc. 32 μg/mL): 3.7 ± 1.4 mg/dL
- Free Hemoglobin, BLOOD, 128 μg/mL (erythrocyte membranes [1]; peptide conc. 128 μg/mL): 2.6 ± 3.9 mg/dL
- Free Hemoglobin, RBC in PBS, 128 μg/mL (erythrocyte membranes [2]; blood cells suspended in PBS 10 mM pH 7.4, highest peptide conc.): 1.9 ± 0.2 mg/dL
- Free Hemoglobin, RBC in PBS, 8 μg/mL (erythrocyte membranes [2]; blood cells suspended in PBS 10 mM pH 7.4, peptide conc. 8 μg/mL): 14.9 ± 3.1 mg/dL
- Free Hemoglobin, RBC in PBS, 32 μg/mL (erythrocyte membranes [2]; blood cells suspended in PBS 10 mM pH 7.4, peptide conc. 32 μg/mL): 18.9 ± 11.2 mg/dL
- Plasma clot, Heparin Plasma (plasmatic coagulation [3]): −
- Plasma clot, Citrated Plasma (plasmatic coagulation [4]): −
- Clotting of citrate plasma, Peptide Concentration 8 μg/mL (plasmatic coagulation [5]): −
- Clotting of citrate plasma, Peptide Concentration 32 μg/mL (plasmatic coagulation [5]): −
- Clotting of citrate plasma, Peptide Concentration 128 μg/mL (plasmatic coagulation [5]): −
- Clotting of citrate plasma, Peptide Concentration 256 μg/mL (plasmatic coagulation [5]): −
- Platelet morphology by SEM, citrate anticoagulated PRP (in words) (platelets): morphologically intact platelets
- Reduction of cytokine secretion of LPS-stimulated leukocytes [6]: up to 90%
